# Read-outs that look alike come from different tables or passages of the source. Non-standard residues stand in square brackets, D forms with d. Residues, ends and D or L forms follow the SMILES beside them. No end group written: not given here.
# B1: FHP30 (peptide)
# peptide: {α‑L‑fucosyl‑acetyl}-K[dK]L[dL]K[dL]L[dK]L[dL]L
# notes: also called fucosylated analogue of HP30; source: synthetic peptide (Fmoc solid-phase synthesis on Tentagel S RAM resin, preparative RP-HPLC)
# Key:
# Burkolderia cenocepacia = assay: microbe, parasite or virus in culture
# Enterobacter cloacae = assay: microbe, parasite or virus in culture; conditions: pH 7.4
# How it was run: (§1)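 MTT read-out: lowest concentration with no visible growth (yellow wells, unaided eye) taken as MIC. Inoculum ~5 × 10^5 CFU in MH pH 7.4 from OD600 0.022 dilution; 2-fold compound series; 16–20 h, 37 °C, no shaking.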
# P. aeruginosa PA14 = assay: microbe, parasite or virus in culture
# How it was run: as §1
# P. aeruginosa ZEM-1A = assay: microbe, parasite or virus in culture; conditions: pH 7.4
# How it was run: as §1
# PA14 2P4 (pmrB) = assay: microbe, parasite or virus in culture; conditions: supplementary CSV
# How it was run: as §1
# PA14 4.13 (phoQ) = assay: microbe, parasite or virus in culture; conditions: supplementary CSV
# How it was run: as §1
# PA14 4.18 (pmrB) = assay: microbe, parasite or virus in culture; conditions: supplementary CSV
# How it was run: as §1
# P. aeruginosa ZEM9A = assay: microbe, parasite or virus in culture; assay type: cell-based, Pseudomonas aeruginosa; conditions: pH 7.4
# How it was run: as §1
# K. pneumoniae Oxa-48 = assay: MIC broth microdilution, K. pneumoniae Oxa-48; assay type: cell-based, Klebsiella pneumoniae; conditions: MDR strain; MH broth pH 7.4, 16–20 h, 37 °C
# How it was run: as §1
# [1] = tested on: Stenotrophomonas maltophilia; assay: microbe, parasite or virus in culture; assay type: cell-based; conditions: pH 7.4
# How it was run: as §1
# Staphylococcus epidermis = assay: MIC broth microdilution, Staphylococcus epidermis; assay type: cell-based; conditions: pH 7.4
# How it was run: as §1
# HEK293 cells = assay: Alamar blue cytotoxicity, HEK293; assay type: cell-based, human; conditions: 24 h, mean ± SD, n = 3, read-out: Toxicity on HEK293 cells
# How it was run: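 Cells seeded 4000/well (HEK293, DMEM) or 8000/well (A549, RPMI-1640) with 10% FBS, then exposed to increasing compound concentrations for 24 h at 37 °C, 5% CO2. AlamarBlue (10%) added for 3–5 h; fluorescence ex 560/em 590 nm, normalized to untreated cells.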
# A549 cells = assay: Alamar blue cytotoxicity, A549; assay type: cell-based, human; conditions: 24 h, mean ± SD, n = 3, read-out: Toxicity on A549 lung cancern cells
# Procedure: The A549 human lung adenocarcinoma cells are derived from a patient and were kindly given to us by Dr. Georgia Konstatinidou (Pharmacology Institute, Bern University). HEK293T cells were obtained from ATCC (CRL-11268). A549 and HEK293 were cultured in an incubator at 37 °C with 5% CO2 in RPMI-1640 (Gibco) and DMEM (Gibco) containing 10% fetal bovine serum (Thermo Fisher), 100 I.U./mL penicillin, and 100 μg/mL streptomycin (Gibco).
# The viability of the cells was assessed with an AlamarBlue assay (ThermoFisher). Cells were seeded into 96-well plates, 4000 cells/well (HEK293) and 8000 cells/well (A549), the day before the experiment. Cells were then treated with the increasing concentration of the compound and incubated for 24 h at 37 °C in the presence of 5% CO2. The next day, the medium was removed and replaced by a 10% AlamarBlue solution in full growth medium (DMEM or RPMI-1640). The cells were incubated for 3–5 h at 37 °C with 5% CO2 in a humidified atmosphere. The fluorescence was then measured on a Tecan Infinite M1000 Pro plate reader at λex 560 nm and λem 590 nm. The value was normalized according to the untreated cells.
# [2] = 24 h, […] human serum in TRIS buffer pH 7.4, 37 °C
# Procedure: Human serum was diluted in 0.1 M filtered TRIS buffer (pH 7.4) (25%, 1:3, v/v). Selected peptides were diluted in 0.1 M filtered TRIS buffer (pH 7.4) to a concentration of 400 μM, and 0.1 mg/mL 4- hydroxybenzoic acid was added as an internal standard. Aliquots of peptide solution (50 μL) were added to aliquots of serum (50 μL) in sterile Eppendorf tubes, to reach a peptide concentration of 200 μM during the assay. Samples were incubated at 37 °C under gentle stirring (350 rpm). Different samples (triplicates) were quenched at different time points (0/1/6/12/24 h) by precipitating serum proteins through the addition of ZnSO4·7 H2O/ACN (1:1) (0.1 M, 100 μL) and cooling in ice bath for 10 min. Protein precipitates were pelleted under centrifugation, and supernatants were then sampled and analyzed by LC–MS. Experiment controls included two references, one known to be degraded and one known to be undegraded. Peaks corresponding to the internal standard and the undegraded peptides were integrated, with the ratio peptide/standard at t = 0 h as 100%.
# A. baumannii ATCC19606 = tested on: A. baumannii ATCC19606
# How it was run: as §1
# E. coli W3110 = tested on: E. coli W3110
# How it was run: as §1
# K. pneumoniae NCTC418 = tested on: K. pneumoniae NCTC418
# How it was run: as §1
# P. aeruginosa PAO1 = tested on: P. aeruginosa PAO1
# How it was run: as §1
# S. aureus COL MRSA = conditions: for MIC S. aureus COL MRSA: MH broth pH 7.4, 16–20 h, 37 °C
# How it was run: as §1
# human red blood cells = assay: Hemolysis assay (MHC)
# Procedure: To determine the MHC stock solutions, 8 mg/mL peptide in PBS (pH 7.4) was prepared, and 50 μL was diluted serially by l/2 in 50 μL of PBS (pH 7.4) in a 96-well plate (Costar or Nunc, polystyrene, untreated). […] Plasma was discarded, and the pellet was re-suspended in a 15 mL Falcon tube in 5 mL of PBS. The washing was repeated three times, and the remaining pellet was re-suspended in 10 mL of PBS. The hRBC suspension (50 μL) was added to each well, and the plate was incubated at room temperature for 4 h. MHC end points were determined by visual determination of the wells after the incubation period. Controls on each plate included a blank medium control (50 μL PBS + 50 μL of hRBCs suspension) and a hemolytic activity control (mQ-deionized water 50 μL + 50 μL hRBC suspension).
# [3] = EYPG vesicle leakage assay; assay type: biochemical; conditions: 10 μg/mL of compound; 10 mM TRIS, 107 mM NaCl, pH 7.4
# Procedure: 5(6)-carboxyfluorescein (CF) was purchased from Sigma. EYPC, EYPG, and a Mini-Extruder were purchased from Avanti Polar Lipids. Egg PC or Egg PG thin lipid layers were prepared by evaporating a solution of 100 mg of EYPC or EYPG in 4 mL of MeOH/CHCl3 (1:1) on a rotary evaporator at room temperature and then dried in vacuo overnight. […] Extravesicular components were removed by gel filtration (Sephadex G-50) with 10 mM TRIS, 107 mM NaCl, pH 7.4 buffer. Final conditions: ∼2.5 mM PC or PG; inside: 50 mM CF, 10 mM TRIS, 10 mM NaCl, pH 7.4 buffer; outside: 10 mM TRIS, 107 mM NaCl, pH 7.4. […] The CF efflux was monitored at λem 517 nm (λex 492 nm) as a function of time after addition of the desired volume of peptide from 2 mg/mL stock in mQ water at t = 45 s, 10 and 50 μg/mL were monitored for both EYPC and EYPG. […] Fluorescence intensities were then normalized to the maximal emission intensity using I(t) = (It – I0)/(I∞ – I0) where I0 = It at peptide addition, I∞ = It at saturation of lysis.
# [4] = EYPC vesicle leakage assay; assay type: biochemical; conditions: 10 μg/mL of compound; 10 mM TRIS, 107 mM NaCl, pH 7.4
# How it was run: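 Egg PC or egg PG vesicles (~2.5 mM lipid) were loaded with 50 mM CF in 10 mM TRIS pH 7.4, with 10 mM TRIS/107 mM NaCl outside. Peptide at 10 or 50 μg/mL was added at 45 s, and CF efflux was followed at λex 492/λem 517 nm, normalized to complete lysis.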
# [5] = CD spectroscopy, α-helix content; assay type: physicochemical; conditions: 5 mM DPC in 7 mM PB buffer pH 7.4, Dichroweb Contin LL set 4
# Procedure: CD experiments were measured on a Jasco J-715 spectropolarimeter. All the experiments were performed using Hellma Suprasil 110-QS 0.1 cm cuvettes. For each peptide, the measurements were performed in phosphate buffer (PB, pH = 7.4, 7 mM), 10% TFE, 20% TFE, 5 mM DPC. The buffer was degassed for 10 min under high vacuum before each set of experiments. The concentration of the peptides was 0.100 mg/mL, and each sample was measured in one accumulation. The scan rate was 20 nm/min, pitch was 0.5 nm, response was 16 s, and bandwidth was 1.0 nm. The nitrogen flow was kept >8 L/min. After each measurement, the cuvettes were washed successively with milli-Q H2O and PB (pH 7.4). The baseline was recorded under the same conditions and subtracted manually. Primary CD spectra were analyzed using DichroWeb[58] and Contin-LL method (set 4).[74]
# [6] = tested on: Pseudomonas aeruginosa, Klebsiella pneumoniae, Acinetobacter baumannii, Escherichia coli, and methicillin-resistant Staphylococcus aureus; conditions: summary of Table 1
# How it was run: as §1
# [7] = molecular target: the molecule itself; assay: crystal structure; co-crystallisation of the C-fucosylated peptide with LecB, sitting drop vapor diffusion, 18 °C; LecB 5 mg/mL in water with 6 mM CaCl2 and MgCl2; peptide at 5:1 molar excess over the LecB monomer
# [8] = MH broth pH 7.4, 16–20 h, 37 °C
# [9] = supplementary CSV, ranges of Table 1 given as one number
molecule,measurement,setting,value
"CC(C)C[C@@H](NC(=O)[C@@H](CC(C)C)NC(=O)[C@@H](CC(C)C)NC(=O)[C@H](CCCCN)NC(=O)[C@@H](CC(C)C)NC(=O)[C@@H](CC(C)C)NC(=O)[C@H](CCCCN)NC(=O)[C@@H](CC(C)C)NC(=O)[C@@H](CC(C)C)NC(=O)[C@H](CCCCN)NC(=O)[C@@H](N)CCCCN)C(N)=O [dln69, KKllKllKlll]",MIC Burkolderia cenocepacia,"Burkolderia cenocepacia; MDR strain, MH broth pH 7.4, 16–20 h, 37 °C",>64 µg/mL
same,MIC B. cenocepacia,Burkolderia cenocepacia; supplementary CSV,> 64 µg/mL
same,MIC Enterobacter cloacae,Enterobacter cloacae,4 µg/mL
same,MIC PA14,P. aeruginosa PA14; [8],1 µg/mL
same,MIC P. aeruginosa PA14,P. aeruginosa PA14; supplementary CSV,1 µg/mL
same,MIC ZEM-1A,P. aeruginosa ZEM-1A,4 µg/mL
same,MIC P. aeruginosaPA14 2P4,PA14 2P4 (pmrB),16 µg/mL
same,MIC P. aeruginosa PA14 4.13,PA14 4.13 (phoQ),2 µg/mL
same,MIC P. aeruginosa PA14 4.18,PA14 4.18 (pmrB),8 µg/mL
same,MIC ZEM9A,P. aeruginosa ZEM9A,8 µg/mL
same,MIC K. pneumoniae Oxa-48,K. pneumoniae Oxa-48,8 µg/mL
same,MIC Stenotrophomonas maltophilia,[1],2 µg/mL
same,MIC Staphylococcus epidermis,Staphylococcus epidermis,4 µg/mL
same,IC50,HEK293 cells,87 ± 2 µM
same,IC50,A549 cells,7.2 ± 6.5 µM
same,serum stability,[2],entirely degraded
same,MIC A. baumannii ATCC19606,A. baumannii ATCC19606; [8],2 µg/mL
same,MIC A. baumannii ATCC19606,A. baumannii ATCC19606; [9],2 µg/mL
same,MIC E. coli W3110,E. coli W3110; [8],0.5 to 1 µg/mL
same,MIC E. coli W3110,E. coli W3110; [9],1 µg/mL
same,MIC K. pneumoniae NCTC418,K. pneumoniae NCTC418; [8],4 µg/mL
same,MIC K. pneumoniae NCTC418,K. pneumoniae NCTC418; [9],4 µg/mL
same,MIC P. aeruginosa PAO1,P. aeruginosa PAO1; [8],2 to 4 µg/mL
same,MIC P. aeruginosa PAO1,P. aeruginosa PAO1; [9],3 µg/mL
same,MIC S. aureus COL MRSA,S. aureus COL MRSA,2 µg/mL
same,MIC S. aureus COL,S. aureus COL MRSA; [9],2 µg/mL
same,MIC S. aureus Newman,S. aureus Newman; [8],1 µg/mL
same,MIC S. aureus Newmann,S. aureus Newman; supplementary CSV,1 µg/mL
"CC(C)C[C@H](NC(=O)[C@H](CC(C)C)NC(=O)[C@H](CC(C)C)NC(=O)[C@@H](CCCCN)NC(=O)[C@H](CC(C)C)NC(=O)[C@H](CC(C)C)NC(=O)[C@@H](CCCCN)NC(=O)[C@H](CC(C)C)NC(=O)[C@H](CC(C)C)NC(=O)[C@@H](CCCCN)NC(=O)[C@@H](CCCCN)NC(=O)[C@H](CC(C)C)NC(=O)[C@H](CC(C)C)NC(=O)[C@H](CC(C)C)NC(=O)[C@@H](CCCCN)NC(=O)[C@H](CC(C)C)NC(=O)[C@H](CC(C)C)NC(=O)[C@@H](CCCCN)NC(=O)[C@H](CC(C)C)NC(=O)[C@H](CC(C)C)NC(=O)[C@@H](CCCCN)NC(=O)[C@H](N)CCCCN)C(N)=O [2ln69, (kkLLkLLkLLL)2] (H-[dK][dK]LL[dK]LL[dK]LLL[dK][dK]LL[dK]LL[dK]LLL-NH2)",MHC,human red blood cells,< 15.6 µg/mL
same,MHC,human red blood cells; pH 7.4,<15.6 µg/mL
same,EYPG vesicle leakage (%),[3],71%
same,EYPC vesicle leakage (%),[4],74%
same,α-helix content (%),[5],82%
same,MIC A. baumannii ATCC19606,A. baumannii ATCC19606; ATCC19606,>64 µg/mL
same,MIC A. baumannii ATCC19606,A. baumannii ATCC19606; [8],>64 µg/mL
same,MIC E. coli W3110,E. coli W3110; [8],>64 µg/mL
same,MIC E. coli W3110,E. coli W3110; [9],>64 µg/mL
same,MIC K. pneumoniae NCTC418,K. pneumoniae NCTC418; [8],>64 µg/mL
same,MIC P. aeruginosa PAO1,P. aeruginosa PAO1; [8],>64 µg/mL
same,MIC P. aeruginosa PAO1,P. aeruginosa PAO1; PAO1,>64 µg/mL
same,"MIC, span over the five bacterial strains",[6],entirely inactive
same,MIC S. aureus COL,S. aureus COL MRSA; COL,>64 µg/mL
same,MIC S. aureus COL MRSA,S. aureus COL MRSA,>64 µg/mL
B1,stoichiometry N,[7],4

# Reference: paper PMC10258794, “To Fold or Not to Fold: Diastereomeric Optimization of an α-Helical Antimicrobial Peptide” (Journal of Medicinal Chemistry, 2023)
